Source: paper PMC10221418, “The Specific Binding and Promotion Effect of Azoles on Human Aldo-Keto Reductase 7A2” (Metabolites, 2023)

Experiments:
[1] = target: T1, human AKR7A2 (Homo sapiens, UniProt O43488); experiment: Biacore assays: binding of azole drugs and 2-CBA to immobilized AKR7A2; conditions: 25 °C; for kd: 1:1 binding model; for Kd: KD calculated by kd/ka
T1 construct: made in house; host or cells: E. coli BL21 (DE3) pLysS, pET-28a vector
Experimental: All experiments were performed on a Biacore 8k instrument (GE, Healthcare). According to the manufacturer’s handbook, about 1 mg/mL of freshly purified AKR7A2 protein was diluted with 10 mM sodium acetate buffer (pH 5.0) and was immobilized on a sensor chip CM5, via amine coupling, to a level of ~20,000 resonance units (RU). A reference surface was prepared in parallel with the addition of the buffer and was used for the subtraction of nonspecific binding. The analytes 2-CBA and azole drugs were diluted in a running buffer containing 2% DMSO. […] All samples were injected at a flow rate of 30 μL/min. The experimental sensorgrams were analyzed by Biacore 8k Evaluation Software Version 1.1.1.7442. The resulting curves were fitted with a 1:1 binding model, which gave the kinetic constants (ka, kd, and KD). All measurements were repeated in at least three independent experiments.

[2] = target: T1, human AKR7A2; experiment: Steady-state kinetics of AKR7A2 catalyzing 2-CBA in the absence or presence of azole drugs; format: biochemical; conditions: for effect on catalytic efficiency (kcat/Km) of AKR7A2 catalyzing 2-CBA: compared to absence of drug; for kcat / increment of kcat/Km compared with the absence of the drug: substrate 2-CBA; for increment of kcat/Km compared with the absence of the drug: highest concentration of drug (50 μM; fluconazole 100 μM)
Experimental: (§1) The steady-state kinetic parameters of AKR7A2 catalyzing 2-CBA were measured on a UV-2550 spectrophotometer (SHIMADZU, Japan) in the absence or presence of azole drugs. All drugs were dissolved with DMSO. Fluconazole, voriconazole, and ketoconazole were all made up of 2, 5, and 10 mM of mother solution. […] The steady-state kinetic assays were performed, as before, with some modifications. […] The reactions were initiated by the addition of 2-CBA and were monitored for 4 min at 25 °C. […] The kinetic data were fitted to the Michaelis-Menten equation [56, 57] using GraphPad Prism 8.0 (GraphPad Software, San Diego, CA, USA). The kinetic parameters Km and kcat were generated by the fitting. The resulting data were expressed as the mean ± standard deviation (SD) based on at least three independent experiments. Statistical significance was analyzed by ANOVA, and the significance was defined as * p < 0.05, ** p < 0.01, *** p < 0.001, or **** p < 0.0001.

[3] = set-up: method as in PMID 12942409; conditions: patients, after administration; cited from earlier work
[4] = target: T1, human AKR7A2; experiment: Steady-state kinetics of AKR7A2 with SSA as a substrate in the absence or presence of voriconazole; format: biochemical; conditions: for kcat: substrate SSA
Experimental: as §1, with “The steady-state kinetic parameters of AKR7A2 catalyzing 2-CBA were measured on a UV-2550 spectrophotometer (SHIMADZU, Japan) in the absence or presence of azole drugs.” left out, “The reactions were initiated by the addition of 2-CBA and were monitored for 4 min at 25 °C.” left out

T1 sequence (O43488 39-359): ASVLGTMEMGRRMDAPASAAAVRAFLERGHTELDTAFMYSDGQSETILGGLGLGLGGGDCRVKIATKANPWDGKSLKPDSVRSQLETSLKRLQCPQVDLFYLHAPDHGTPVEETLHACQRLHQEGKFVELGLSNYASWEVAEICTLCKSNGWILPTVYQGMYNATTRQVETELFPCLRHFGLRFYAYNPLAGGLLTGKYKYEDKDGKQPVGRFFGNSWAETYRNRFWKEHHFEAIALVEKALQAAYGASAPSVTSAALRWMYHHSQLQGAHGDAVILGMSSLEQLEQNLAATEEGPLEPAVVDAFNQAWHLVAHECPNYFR

Structure (SMILES)	kd [1]	Kd [1]	effect on catalytic efficiency (kcat/Km) of AKR7A2 catalyzing 2-CBA [2]	kcat ([2]; drug concentration 5 μM)	kcat ([2]; drug concentration 20 μM)	kcat ([2]; drug concentration 50 μM)	kcat ([2]; drug concentration 100 μM)	increment of kcat/Km compared with the absence of the drug [2]	cerebrospinal fluid concentrations [3]	effect on catalysis of AKR7A2 with SSA as a substrate ([4]; concentration range of 0–50 µM)	kcat ([4]; drug concentration 5 μM)	kcat ([4]; drug concentration 20 μM)	kcat ([4]; drug concentration 50 μM)
O=Cc1ccccc1C(=O)O [2-CBA, 2-carboxybenzaldehyde]	0.0229 ± 0.0202 s⁻¹	19.3 ± 14.9 µM											
Clc1ccc(COC(Cn2ccnc2)c2ccc(Cl)cc2Cl)cc1 (centres unmarked) [econazole]	15.9 ± 0.72 (s^−1) × 10^2	565 ± 84 µM	did not significantly change	1.194 ± 0.0285 s⁻¹	1.213 ± 0.0258 s⁻¹	1.262 ± 0.0635 s⁻¹							
OC(Cn1cncn1)(Cn1cncn1)c1ccc(F)cc1F [fluconazole]	0.0218 ± 0.0046 s⁻¹	8.11 ± 4.83 µM	enhanced significantly		1.195 ± 0.0173 s⁻¹	1.221 ± 0.0192 s⁻¹	1.072 ± 0.0185 s⁻¹	64%					
CCC(C)n1ncn(-c2ccc(N3CCN(c4ccc(OCC5COC(Cn6cncn6)(c6ccc(Cl)cc6Cl)O5)cc4)CC3)cc2)c1=O (centres unmarked) [itraconazole]	0.0263 ± 0.0035 s⁻¹	0.81 ± 0.44 µM	enhanced significantly	1.342 ± 0.0237 s⁻¹	1.219 ± 0.0167 s⁻¹	1.107 ± 0.023 s⁻¹		35%					
CC(=O)N1CCN(c2ccc(OCC3COC(Cn4ccnc4)(c4ccc(Cl)cc4Cl)O3)cc2)CC1 (centres unmarked) [ketoconazole]	12.6 ± 1.91 (s^−1) × 10^2	1800 ± 438 µM	did not significantly change		1.302 ± 0.0268 s⁻¹	1.271 ± 0.0303 s⁻¹	1.44 ± 0.0348 s⁻¹						
Clc1ccc(COC(Cn2ccnc2)c2ccc(Cl)cc2Cl)c(Cl)c1 (centres unmarked) [miconazole]	0.0536 ± 0.0017 s⁻¹	84.9 ± 7.21 µM	enhanced significantly	1.205 ± 0.0228 s⁻¹	1.196 ± 0.0235 s⁻¹	1.236 ± 0.0292 s⁻¹		67%					
CC[C@@H]([C@H](C)O)n1ncn(-c2ccc(N3CCN(c4ccc(OC[C@@H]5CO[C@@](Cn6cncn6)(c6ccc(F)cc6F)C5)cc4)CC3)cc2)c1=O [posaconazole]	0.0298 ± 0.0059 s⁻¹	1.35 ± 0.44 µM	enhanced significantly	1.239 ± 0.0212 s⁻¹	1.273 ± 0.029 s⁻¹	1.029 ± 0.0295 s⁻¹		74%					
C[C@@H](c1ncncc1F)[C@](O)(Cn1cncn1)c1ccc(F)cc1F [voriconazole]	0.0168 ± 0.0072 s⁻¹	2.98 ± 2.11 µM	did not significantly change		1.126 ± 0.0163 s⁻¹	1.237 ± 0.0168 s⁻¹	1.258 ± 0.0248 s⁻¹		0.08 to 3.93 µg/mL	efficiently promote the catalysis	1.297 ± 0.0377 s⁻¹	1.306 ± 0.024 s⁻¹	1.326 ± 0.0222 s⁻¹
